Laboratory results taken from the RepoRT retention time repository.

Assay: Thermo Scientific Acclaim RSLC 120 C18, 100 × 2.1 mm, 2.2 µm, 30 °C, 0.2 to 0.48 mL/min, estimated dead time 1.1 min; A: 90% water + 10% methanol + 5 mM ammonium acetate; B: methanol + 5 mM ammonium acetate; gradient (min/%B) 0.1/1 3/39 14/99.9 16/99.9
Conditions: stereoisomer not certain

Row | Structure (SMILES) | LC retention time [min]
1 | CNCC(O)c1cccc(O)c1 (configuration not stated) | 3.24
2 | Cc1c(N(C)CS(=O)(=O)O)c(=O)n(-c2ccccc2)n1C | 4.89
3 | CC(C)Cc1ccc(C(C)C(=O)O)cc1 (configuration not stated) | 9.72
4 | C=CCC1(C(C)C#CCC)C(=O)NC(=O)N(C)C1=O (configuration not stated) | 9.02
5 | Cc1occc1C(=O)Nc1ccccc1 | 7.54
6 | Nc1ncn[nH]1 | 1.67
7 | CCCCCCCCCC(Oc1ccccc1)C(=O)O (configuration not stated) | 11.4
8 | C=C1CC23CC1(O)CCC2C12C=CC(O)C(C)(C(=O)O1)C2C3C(=O)O (configuration not stated) | 4.42
9 | CCCc1nc2c(C)cc(-c3nc4ccccc4n3C)cc2n1Cc1ccc(-c2ccccc2C(=O)O)cc1 | 11.2
10 | Cc1cccc(Nc2ccccc2C(=O)O)c1C | 9.29
11 | CCNC1CC(C)S(=O)(=O)c2sc(S(N)(=O)=O)cc21 (configuration not stated) | 4.63
12 | COC(=O)c1ccccc1CS(=O)(=O)NC(=O)Nc1nc(OC)cc(OC)n1 | 7.66
13 | CCNc1nc(NC(C)C)[nH]c(=O)n1 | 6
14 | CC(C)Nc1nc(NC(C)C)[nH]c(=O)n1 | 8.19
15 | CC12CCC3c4ccc(O)cc4CCC3C1CCC2O (configuration not stated) | 10.8
16 | CC12CCC(O)CC1CCC1C2CCC2(C)C1CCC2(C)O (configuration not stated) | 14
17 | Nc1ccc(O)c(C(=O)O)c1 | 2.04
18 | COCc1cnc(C2=NC(C)(C(C)C)C(=O)N2)c(C(=O)O)c1 (configuration not stated) | 3.74
19 | CCC1OC(=O)C(C)C(OC2CC(C)(OC)C(O)C(C)O2)C(C)C(OC2OC(C)CC(NC)C2O)C(C)(OC)CC(C)C(=O)C(C)C(O)C1(C)O (configuration not stated) | 11.3
20 | CSc1nc(N=[N+]=[N-])nc(NC(C)C)n1 | 9.67
21 | CC(Cc1ccc(O)cc1)NCC(O)c1cc(O)cc(O)c1 (configuration not stated) | 4.33
22 | CC(C)N(C(=O)CS(=O)(=O)O)c1ccccc1 | 6.01
23 | CC(C(=O)O)c1ccc(C2CCCCC2)c2ccccc12 (configuration not stated) | 11.2

Row | Structure (SMILES) | LC retention time [min]
24 | COC1CC(OC2C(C)OC(OC3C(C)=CCC4CC(CC5(C=CC(C)C(C(C)C)O5)O4)OC(=O)C4C=C(C)C(O)C5OCC(=CC=CC3C)C45O)CC2OC)OC(C)C1O (configuration not stated) | 13.4
25 | CN(C)S(=O)(=O)Nc1ccccc1 | 7.14
26 | CC1CC2(C)C(CCC3C4CCC(O)C4(C)CCC32)CC1=O (configuration not stated) | 14.4
27 | Cc1ccc(S(N)(=O)=O)cc1 | 4.79
28 | CN(C)C(=O)Nc1ccccc1 | 5.11
29 | CCCN(CCC)S(=O)(=O)c1ccc(C(=O)O)cc1 | 6.46
30 | CC(C)(C)c1cc([N+](=O)[O-])cc([N+](=O)[O-])c1O | 8.13
31 | CC12C=CC(=O)C=C1CCC1C2C(=O)CC2(C)C1CCC2(O)C(=O)CO (configuration not stated) | 8.31
32 | CC(C(=O)O)c1ccc(N2Cc3ccccc3C2=O)cc1 (configuration not stated) | 6.23
33 | O=C(O)CCC(=O)c1ccc(-c2ccccc2)cc1 | 6.79
34 | CCCCCC(=O)c1ccc(O)cc1O | 10.6
35 | CC(NC(=O)C(N)CC(=O)O)C(=O)NC1C(C)(C)SC1(C)C (configuration not stated) | 6.06
36 | CC(C)(C)NCC(O)COc1cccc2c1CC(O)C(O)C2 (configuration not stated) | 5.12
37 | Cc1ccc(C(C)NC(=O)C(NC(=O)OC(C)C)C(C)C)cc1 (configuration not stated) | 9.8
38 | CCC1(CCC(C)C)C(=O)NC(=O)NC1=O | 7.9
39 | CCCCCCCCCCCCOS(=O)(=O)c1ccccc1 | 14.2
40 | CC(=O)CC(c1ccccc1)c1c(O)c2ccccc2oc1=O (configuration not stated) | 6.56
41 | CCOC(=O)Nc1cccc(OC(=O)Nc2ccccc2)c1 | 8.53
42 | CCc1ccc(CCOc2ccc(CC3SC(=O)NC3=O)cc2)nc1 (configuration not stated) | 10.6
43 | CCOc1nc2cccc(C(=O)O)c2n1Cc1ccc(-c2ccccc2-c2nn[nH]n2)cc1 | 5.86
44 | CSc1nnc(C(C)(C)C)c(=O)[nH]1 | 8.04
45 | NC(=O)N1c2ccccc2C(O)C(O)c2ccccc21 (configuration not stated) | 6.64
46 | COC(=O)NC(C(=O)NC(Cc1ccccc1)C(O)CN(Cc1ccc(-c2ccccn2)cc1)NC(=O)C(NC(=O)OC)C(C)(C)C)C(C)(C)C (configuration not stated) | 12.4

Row | Structure (SMILES) | LC retention time [min]
47 | CCCC(CCC)C(=O)O | 7.04
48 | O=C(O)C(c1ccccc1)C1CCCCN1 (configuration not stated) | 5.27
49 | CCC1(CC)C(=O)NC(=O)NC1=O | 4.8
50 | Cc1c(NC=O)c(=O)n(-c2ccccc2)n1C | 4.51
51 | CCNC(=O)NC(=O)C(C#N)=NOC | 5.58
52 | CC12CCC3c4ccc(O)cc4CCC3C1CCC2=O (configuration not stated) | 10.8
53 | CNC(=O)N(C)c1nc2ccccc2s1 | 8.23
54 | Cc1cnc(NC(=O)C2=C(O)c3ccccc3S(=O)(=O)N2C)s1 | 6.41
55 | CCC1(c2ccccc2)C(=O)NC(=O)NC1=O | 6.1
56 | Nc1nc2ccccc2[nH]1 | 5.11
57 | COc1cc(NS(=O)(=O)c2ccc(NC(C)=O)cc2)nc(OC)n1 | 5.09
58 | CCN1CCCC1CNC(=O)c1cc(S(=O)(=O)CC)c(N)cc1OC (configuration not stated) | 5.08
59 | CCCNC(C)C(=O)Nc1ccccc1C (configuration not stated) | 7.49
60 | CC1(C)SC2C(NC(=O)C(N)c3ccc(O)cc3)C(=O)N2C1C(=O)O (configuration not stated) | 3.68
61 | CCCc1nn(C)c2c(=O)[nH]c(-c3cc(S(=O)(=O)N4CCN(C)CC4)ccc3OCC)nc12 | 9.5
62 | CC(Cn1cnc2c(N)ncnc21)OCP(=O)(O)O (configuration not stated) | 3.18
63 | CNC(=O)ON=C(C)C(C)S(C)=O (configuration not stated) | 3.36
64 | CC(C)N(C(=O)C(=O)O)c1ccccc1 | 5.57
65 | CCCCCCCCCc1ccc(O)cc1 | 12.9
66 | CCN1CCCC1CNC(=O)c1cc(S(N)(=O)=O)ccc1OC (configuration not stated) | 4.42
67 | CCc1cccc2c3c([nH]c12)C(CC)(CC(=O)O)OCC3 (configuration not stated) | 10.5
68 | COC(=O)Nc1cccc(OC(=O)Nc2cccc(C)c2)c1 | 8.72
69 | On1nnc2ccccc21 | 3.69

Row | Structure (SMILES) | LC retention time [min]
70 | CCOP(=S)(NC(C)CC)Oc1cc(C)ccc1[N+](=O)[O-] (configuration not stated) | 11.2
71 | CC12CCC3c4ccc(O)c(O)c4CCC3C1CCC2=O (configuration not stated) | 9.89
72 | O=C(O)c1cc(-c2ccccc2)nc2ccccc12 | 5.89
73 | CCc1cccc(CC)c1N(COC)C(=O)CS(=O)(=O)O | 8.02
74 | O=[N+]([O-])c1ccc(O)c([N+](=O)[O-])c1 | 4.5
75 | CC(=O)Nc1ccc(S(=O)(=O)Nc2cc(C)on2)cc1 | 4.33
76 | O=c1nccc[nH]1 | 5.01
77 | O=S(=O)(O)NC1CCCCC1 | 4.12
78 | Cc1ccc(NC(=O)NC(C)(C)c2ccccc2)cc1 | 9.64
79 | CC(C)C1(C)N=C(c2nc3ccccc3cc2C(=O)O)NC1=O (configuration not stated) | 4.85
80 | CCCC(C)C1(CC)C(=O)NC(=S)NC1=O (configuration not stated) | 8.63
81 | CC(C)c1ccc(NC(=O)N(C)C)cc1 | 8.29
82 | O=C(Nc1ccccc1)Nc1cnns1 | 7.12
83 | O=C1CN=C(c2ccccc2)c2c(sc3c2CCCC3)N1 | 9.91
84 | CCOP(=S)(OCC)Oc1cnccn1 | 8.03
85 | C=C(C)C1CCC(C)=CC1c1c(O)cc(CCCCC)cc1O (configuration not stated) | 13.7
86 | C=C(C)C1Cc2c(ccc3c2OC2COc4cc(OC)c(OC)cc4C2C3=O)O1 (configuration not stated) | 10.4
87 | Nc1ncnc2c1ncn2C1OC(CO)C(O)C1O (configuration not stated) | 3.84
88 | c1coc(-c2nc3ccccc3[nH]2)c1 | 6.8
89 | CNC(=O)C(=NOC)c1ccccc1COc1cc(C)ccc1C | 10.6
90 | CCC(=C(c1ccccc1)c1ccc(OCCN(C)C)cc1)c1ccc(OC)c(O)c1 | 11.5
91 | CC12CCC3c4ccc(O)cc4CCC3C1CC(O)C2O (configuration not stated) | 7.82
92 | O=C(O)c1ccccc1O | 3.58

Row | Structure (SMILES) | LC retention time [min]
93 | NS(=O)(=O)c1ccccc1 | 3.92
94 | NCC(O)c1ccc(O)cc1 (configuration not stated) | 1.96
95 | CCc1cccc(CC)c1N(COC)C(=O)C(=O)O | 7.69
96 | CC1C=CC=CCCC=CC=CC=CC=CC(OC2OC(C)C(O)C(N)C2O)CC2OC(O)(CC(O)C(O)CCC(O)CC(O)CC(O)CC(=O)OC(C)C(C)C1O)CC(O)C2C(=O)O (configuration not stated) | 11.8
97 | CNC(=N[N+](=O)[O-])NCC1CCOC1 (configuration not stated) | 3.59
98 | CC12CCC(=O)C=C1CCC1C2C(O)CC2(C)C(C(=O)CO)CCC12 (configuration not stated) | 9.91
99 | CC(=O)Nc1nnc(S(N)(=O)=O)s1 | 3.24
100 | CCOc1ccc(NC(=O)OC(C)C)cc1OCC | 9.01
101 | CCCCC1C(=O)N(c2ccccc2)N(c2ccc(O)cc2)C1=O (configuration not stated) | 7.73
102 | CCC(=O)OC(OP(=O)(CCCCc1ccccc1)CC(=O)N1CC(C2CCCCC2)CC1C(=O)O)C(C)C (configuration not stated) | 13.3
103 | CCC1(c2cccc(O)c2)CCCCN(C)C1 (configuration not stated) | 6.47
104 | NS(=O)(=O)c1cc(C(=O)O)cc(N2CCCC2)c1Oc1ccccc1 | 6.04
105 | NC(=O)N1c2ccccc2C2OC2c2ccccc21 (configuration not stated) | 8.47
106 | CCN(CC)C(=O)Nc1ccc(OCC(O)CNC(C)(C)C)c(C(C)=O)c1 (configuration not stated) | 6.76
107 | COc1ccc(CC(C)NCC(O)c2ccc(O)c(NC=O)c2)cc1 (configuration not stated) | 5.91
108 | CC1(C)OCC2OC3(C(=O)O)OC(C)(C)OC3C2O1 (configuration not stated) | 4.3
109 | CCCCC(=O)N(Cc1ccc(-c2ccccc2-c2nn[nH]n2)cc1)C(C(=O)O)C(C)C (configuration not stated) | 8.17
110 | C#CC1(O)CCC2C3CCC4=CC(=O)CCC4=C3C=CC21CC (configuration not stated) | 9.64
111 | O=c1[nH]c2c(c(=O)n1C1CCCCC1)CCC2 | 8.23
112 | CCOP(=O)(NC(C)C)Oc1ccc(S(C)(=O)=O)c(C)c1 (configuration not stated) | 7.17
